Test results as given in patent US6737383B1, “Herbicidal oxadiazolidines” (priority 1999, dated 2004).

How the values were obtained:
blackgrass = assay: Test B pre/postemergence blackgrass; type: in vivo, Alopecurus myosuroides
In short: (§1)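 Herbicidal effect was estimated by eye on a ten-point control scale after plants spent twelve to sixteen days in a greenhouse following soil or foliar treatment. Foliar sprays targeted plants at one to four leaves; all doses were formulated in a non-phytotoxic solvent with surfactant.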

surinam grass = assay: Test B pre/postemergence surinam grass; type: in vivo, Brachiaria decumbens
In short: as §1

cocklebur = assay: Test B pre/postemergence cocklebur; type: in vivo, Xanthium strumarium
In short: as §1

corn = assay: Test B pre/postemergence corn; type: in vivo, Zea mays
In short: as §1

crabgrass = assay: Test B pre/postemergence crabgrass; type: in vivo, Digitaria sanguinalis
In short: as §1

giant foxtail = assay: Test B pre/postemergence giant foxtail; type: in vivo, Setaria faberii
In short: as §1

pigweed = assay: Test B pre/postemergence pigweed; type: in vivo, Amaranthus retroflexus
In short: as §1

rape = assay: Test B pre/postemergence rape; type: in vivo, Brassica napus
In short: as §1

soybean = assay: Test B pre/postemergence soybean; type: in vivo, Glycine max
In short: as §1

sugar beet = assay: Test B pre/postemergence sugar beet; type: in vivo, Beta vulgaris
In short: as §1

wheat = assay: Test B pre/postemergence wheat; type: in vivo, Triticum aestivum
In short: as §1

purple nutsedge = assay: Test B pre/postemergence purple nutsedge; type: in vivo, Cyperus rotundus
In short: as §1

rice = assay: Test B flood test rice; type: in vivo, Oryza sativa
In short: (§2)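 Each value is a visual injury score relative to controls, with 10 meaning complete control and 0 no effect. Evaluation took place twelve to sixteen days after the 2-leaf-stage plants were treated and kept in the greenhouse.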

smallflower flatsedge = assay: Test B flood test smallflower flatsedge; type: in vivo, Cyperus difformis
In short: as §2

duck salad = assay: Test B flood test duck salad; type: in vivo, Heteranthera limosa
In short: as §2

bamyardgrass = assay: Test B flood test barnyardgrass; type: in vivo, Echinochloa crus-galli
In short: as §2

[1] = Postemergence, Rate 62 g/ha, scale 0 to 10, 0 is no effect, 10 is complete control
[2] = Postemergence, Rate 250 g/ha, scale 0 to 10, 0 no effect, 10 complete control
[3] = Preemergence, Rate 62 g/ha, scale 0 to 10 (0 no effect, 10 complete control)
[4] = Preemergence, Rate 125 g/ha, scale 0 to 10 (0 no effect, 10 complete control)
[5] = Preemergence, Rate 250 g/ha, scale of 0 to 10 where 0 is no effect and 10 is complete control
[6] = Preemergence, Rate 500 g/ha, scale 0 (no effect) to 10 (complete control)
[7] = Rate 125 g/ha, Postemergence, scale 0 to 10, 0 no effect, 10 complete control
[8] = Rate 500 g/ha, Postemergence, scale 0 to 10, 0 no effect, 10 complete control
[9] = Rate 125 g/ha, Postemergence section (flood test species), scale 0 to 10, 0 no effect, 10 complete control
[10] = Rate 500 g/ha, listed under Postemergence (flood test species), scale 0 to 10, 0 no effect, 10 complete control
[11] = flood test, listed under Postemergence, Rate 250 g/ha, scale 0 to 10, 0 no effect, 10 complete control

## CC(C)N(C(=O)n1oc(=O)n(Cc2ccccc2)c1=O)c1ccc(F)cc1F [Compound 79]
blackgrass; [1]
  Blackgrass plant response rating: 0
blackgrass; [2]
  Blackgrass plant response rating: 3
blackgrass; [3]
  Blackgrass plant response rating: 0
blackgrass; [4]
  Plant response rating, Blackgrass: 2
blackgrass; [5]
  Plant response rating, Blackgrass: 6
blackgrass; [6]
  Blackgrass plant response rating: 6
blackgrass; [7]
  Blackgrass plant response rating: 0
blackgrass; [8]
  Blackgrass plant response rating: 3
Surinam grass; [1]
  B. signalgrass plant response rating: 0
Surinam grass; [2]
  B. signalgrass plant response rating: 0
Surinam grass; [3]
  B. signalgrass plant response rating: 2
Surinam grass; [4]
  Plant response rating, B. signalgrass: 0
Surinam grass; [5]
  Plant response rating, B. signalgrass: 3
Surinam grass; [6]
  B. signalgrass plant response rating: 5
Surinam grass; [7]
  B. signalgrass plant response rating: 0
Surinam grass; Rate 500 g/ha, Postemergence, scale of 0 to 10 where 0 is no effect and 10 is complete control
  B. signalgrass plant response rating: 0
cocklebur; [1]
  Cocklebur plant response rating: 0
cocklebur; [2]
  Cocklebur plant response rating: 2
cocklebur; [3]
  Cocklebur plant response rating: 0
cocklebur; [4]
  Plant response rating, Cocklebur: 0
cocklebur; [5]
  Plant response rating, Cocklebur: 0
cocklebur; [6]
  Cocklebur plant response rating: 0
cocklebur; [7]
  Cocklebur plant response rating: 0
cocklebur; [8]
  Cocklebur plant response rating: 2
corn; [1]
  Corn plant response rating: 0
corn; [2]
  Corn plant response rating: 0
corn; [3]
  Corn plant response rating: 0
corn; [4]
  Plant response rating, Corn: 0
corn; [5]
  Plant response rating, Corn: 0
corn; [6]
  Corn plant response rating: 0
corn; [7]
  Corn plant response rating: 0
corn; [8]
  Corn plant response rating: 0
crabgrass; [1]
  Crabgrass plant response rating: 3
crabgrass; [2]
  Crabgrass plant response rating: 4
crabgrass; [3]
  Crabgrass plant response rating: 2
crabgrass; [4]
  Plant response rating, Crabgrass: 7
crabgrass; [5]
  Plant response rating, Crabgrass: 9
crabgrass; [6]
  Crabgrass plant response rating: 10
crabgrass; [7]
  Crabgrass plant response rating: 4
crabgrass; [8]
  Crabgrass plant response rating: 8
Giant foxtail; [1]
  Giant foxtail plant response rating: 0
Giant foxtail; [2]
  Giant foxtail plant response rating: 3
Giant foxtail; [3]
  Giant foxtail plant response rating: 4
Giant foxtail; [4]
  Plant response rating, Giant foxtail: 8
Giant foxtail; [5]
  Plant response rating, Giant foxtail: 9
Giant foxtail; [6]
  Giant foxtail plant response rating: 9
Giant foxtail; [7]
  Giant foxtail plant response rating: 2
Giant foxtail; [8]
  Giant foxtail plant response rating: 4
pigweed; [1]
  Redroot pigweed plant response rating: 0
pigweed; [2]
  Redroot pigweed plant response rating: 3
pigweed; [3]
  Redroot pigweed plant response rating: 0
pigweed; [4]
  Plant response rating, Redroot pigweed: 4
pigweed; [5]
  Plant response rating, Redroot pigweed: 7
pigweed; [6]
  Redroot pigweed plant response rating: 10
pigweed; [7]
  Redroot pigweed plant response rating: 0
pigweed; [8]
  Redroot pigweed plant response rating: 4
rape; [1]
  Rape plant response rating: 0
rape; [2]
  Rape plant response rating: 0
rape; [3]
  Rape plant response rating: 0
rape; [4]
  Plant response rating, Rape: 0
rape; [5]
  Plant response rating, Rape: 0
rape; [6]
  Rape plant response rating: 0
rape; [7]
  Rape plant response rating: 0
rape; [8]
  Rape plant response rating: 3
soybean; [1]
  Soybean plant response rating: 0
soybean; [2]
  Soybean plant response rating: 1
soybean; [3]
  Soybean plant response rating: 0
soybean; [4]
  Plant response rating, Soybean: 0
soybean; [5]
  Plant response rating, Soybean: 0
soybean; [6]
  Soybean plant response rating: 0
soybean; [7]
  Soybean plant response rating: 1
soybean; [8]
  Soybean plant response rating: 2
Sugar beet; [1]
  Sugarbeets plant response rating: 3
Sugar beet; [2]
  Sugarbeets plant response rating: 4
Sugar beet; [3]
  Sugarbeets plant response rating: 0
Sugar beet; [4]
  Plant response rating, Sugarbeets: 1
Sugar beet; [5]
  Plant response rating, Sugarbeets: 1
Sugar beet; [6]
  Sugarbeets plant response rating: 2
Sugar beet; [8]
  Sugarbeets plant response rating: 6
wheat; [1]
  Wheat plant response rating: 0
wheat; [2]
  Wheat plant response rating: 0
wheat; [3]
  Wheat plant response rating: 0
wheat; [4]
  Plant response rating, Wheat: 0
wheat; [5]
  Plant response rating, Wheat: 0
wheat; [6]
  Wheat plant response rating: 2
wheat; [7]
  Wheat plant response rating: 0
wheat; [8]
  Wheat plant response rating: 0
Purple nutsedge; [1]
  Nutsedge plant response rating: 0
Purple nutsedge; [2]
  Nutsedge plant response rating: 0
Purple nutsedge; [3]
  Nutsedge plant response rating: 0
Purple nutsedge; [4]
  Plant response rating, Nutsedge: 0
Purple nutsedge; [5]
  Plant response rating, Nutsedge: 0
Purple nutsedge; [6]
  Nutsedge plant response rating: 0
Purple nutsedge; [7]
  Nutsedge plant response rating: 0
Purple nutsedge; [8]
  Nutsedge plant response rating: 0
rice; [1]
  Rice plant response rating: 0
rice; [9]
  Rice plant response rating: 0
rice; [10]
  Rice plant response rating: 3
rice; [11]
  Rice plant response rating: 0
Smallflower flatsedge; [1]
  S. Flatsedge plant response rating: 0
Smallflower flatsedge; [9]
  S. Flatsedge plant response rating: 0
Smallflower flatsedge; [10]
  S. Flatsedge plant response rating: 10
Smallflower flatsedge; [11]
  S. Flatsedge plant response rating: 4
Duck salad; [1]
  Ducksalad plant response rating: 0
Duck salad; [9]
  Ducksalad plant response rating: 0
Duck salad; [10]
  Ducksalad plant response rating: 3
Duck salad; [11]
  Ducksalad plant response rating: 0
bamyardgrass; [1]
  Barnyardgrass plant response rating: 0
bamyardgrass; [9]
  Barnyardgrass plant response rating: 0
bamyardgrass; [10]
  Barnyardgrass plant response rating: 9
bamyardgrass; [11]
  Barnyardgrass plant response rating: 3
